Source: ChEMBL document CHEMBL4043174, “Synthesis, conformational study and antiviral activity of l-like neplanocin derivatives” (Bioorg Med Chem Lett, 2017)
≈ marks a conversion by molar mass, not a printed value. Calls of active or inactive are those of the source. No cut-off for these calls is given here.

Legend:
[1] = system: Norovirus; assay: Antiviral activity against Norovirus; type: functional
[2] = system: unidentified adenovirus; assay: Antiviral activity against Adenovirus; type: functional
[3] = system: Chikungunya virus; assay: Antiviral activity against Chikungunya virus; type: functional
[4] = system: Dengue virus; assay: Antiviral activity against Dengue virus; type: functional
[5] = system: Enterovirus C; assay: Antiviral activity against Poliovirus; type: functional
[6] = system: Punta Toro virus; assay: Antiviral activity against Punta Toro virus; type: functional
[7] = system: Rift Valley fever virus; assay: Antiviral activity against Rift Valley fever virus; type: functional
[8] = system: Tacaribe virus; assay: Antiviral activity against Tacaribe virus; type: functional; settings: Mammarenavirus tacaribeense
[9] = system: Usutu virus; assay: Antiviral activity against Usutu virus; type: functional
[10] = system: Venezuelan equine encephalitis virus; assay: Antiviral activity against Venezuelan equine encephalitis virus; type: functional
[11] = system: West Nile virus; assay: Antiviral activity against West Nile virus; type: functional
[12] = system: Yellow fever virus; assay: Antiviral activity against Yellow fever virus; type: functional
[13] = system: Japanese encephalitis virus; assay: Antiviral activity against Japanese encepahalitis virus; type: functional
[14] = system: Zika virus; assay: Antiviral activity against Zika virus; type: functional
[15] = system: Measles morbillivirus; assay: Antiviral activity against measles virus; type: functional
[16] = system: Ebolavirus; assay: Antiviral activity against Ebolavirus; type: functional; settings: for EC50: Orthoebolavirus
[17] = system: Dengue virus; assay: Antiviral activity against Dengue virus infected in African green monkey Vero cells; type: functional
[18] = system: Rift Valley fever virus; assay: Antiviral activity against Rift Valley fever virus infected in African green monkey Vero cells; type: functional
[19] = system: Venezuelan equine encephalitis virus; assay: Antiviral activity against Venezuelan equine encephalitis virus infected in African green monkey Vero cells; type: functional
[20] = system: West Nile virus; assay: Antiviral activity against West Nile virus infected in African green monkey Vero cells; type: functional
[21] = system: Yellow fever virus; assay: Antiviral activity against Yellow fever virus infected in African green monkey Vero cells; type: functional
[22] = system: Japanese encephalitis virus; assay: Antiviral activity against Japanese encepahalitis virus infected in African green monkey Vero cells; type: functional
[23] = (§1) Cytotoxicity against African green monkey Vero cells assessed as reduction in cell viability; type: cell-based; settings: chlorocebus sabaeus, Vero cells
[24] = system: Vero; assay: as §1; type: cell-based; settings: chlorocebus sabaeus, vero
[25] = system: Vaccinia virus; assay: Antiviral activity against vaccinia virus infected in PRK cells assessed as reduction in virus-induced cytopathic effect after 2 to 3 days; type: functional, cell-based; settings: Orthopoxvirus vaccinia
[26] = system: Vesicular stomatitis virus; assay: Antiviral activity against vesicular stomatitis virus infected in PRK cells assessed as reduction in virus-induced cytopathic effect after 1 to 2 days; type: functional, cell-based

| Compound | EC50 [1] [µM] | Activity [2] | Activity [3] | Activity [4] | Activity [5] | Activity [6] | Activity [7] | Activity [8] | Activity [9] | Activity [10] | Activity [11] | Activity [12] | Activity [13] | Activity [14] | Activity [15] | EC50 [16] [µg/mL] | Activity [16] | Activity [24] | other results |
| --- | --- | --- | --- | --- | --- | --- | --- | --- | --- | --- | --- | --- | --- | --- | --- | --- | --- | --- | --- |
| Nc1ncc(Br)c2c1ncn2[C@H]1C=C[C@H](O)[C@@H]1O | 33 | inactive | inactive | inactive | inactive | inactive | inactive | inactive | inactive | inactive | inactive | inactive | inactive | inactive | inactive | 8.3 (≈ 26.7 µM) |  |  | IC50 [17]: 7.2 µg/mL (≈ 23.1 µM); IC50 [18]: 31 µg/mL (≈ 99.6 µM); IC50 [19]: 27 µg/mL (≈ 86.8 µM); IC50 [20]: 32 µg/mL (≈ 103 µM); IC50 [21]: 32 µg/mL (≈ 103 µM); IC50 [22]: 32 µg/mL (≈ 103 µM); CC50 [23]: 27 to 32 µg/mL (≈ 86.8 to 103 µM) |
| Nc1ncc(Br)c2c1ncn2[C@@H]1[C@@H](O)[C@@H](O)[C@H]2C[C@H]21 | 3 | inactive | inactive | inactive | inactive | inactive | inactive | inactive | inactive | inactive | inactive | inactive | inactive | inactive | inactive |  | inactive | Non-Toxic |  |
| Nc1nccc2c1ncn2[C@H]1C=C[C@H](O)[C@@H]1O (relative stereo) | 4.2 | inactive | inactive | inactive | inactive | inactive | inactive | inactive | inactive | inactive | inactive | inactive | inactive | inactive | inactive | 29.5 (≈ 127 µM) |  | Non-Toxic | EC50 [25]: 0.7 µg/mL (≈ 3.01 µM); EC50 [26]: 0.2 µg/mL (≈ 0.861 µM) |
| Nc1nccc2c1ncn2[C@@H]1[C@@H](O)[C@@H](O)[C@H]2C[C@H]21 | > 100 | inactive | inactive | inactive | inactive | inactive | inactive | inactive | inactive | inactive | inactive | inactive | inactive | inactive | inactive |  | inactive | Non-Toxic |  |
